In patent US20160015730A1, “Treatment of Pulmonary Hypertension with Carbonic Anhydrase Inhibitors” (priority 2007, published 2016):

Columns and labels:
[1] = test system: patients exhibiting similar symptoms with respect to pulmonary hypertension; experiment: Examples 12-17: procedures of Examples 2 through 5 repeated with zonisamide or acetazolamide substituted for topiramate; format: in vivo, human
[2] = test system: patient exhibiting similar symptoms with respect to pulmonary hypertension; experiment: Examples 6-11: procedure of Example 1 repeated with zonisamide or acetazolamide substituted for topiramate; format: in vivo, human
Type V phosphodiesterase = Type V phosphodiesterase (Homo sapiens, UniProt O76074); conditions: comparison with avanafil (and sildenafil); cited from earlier work
[3] = test system: patients with pulmonary hypertension; experiment: Summary of the five patients of Examples 1-5; format: in vivo, human
Text: However, the improvement in pulmonary pressures appeared to be independent of weight loss in these patients.

[4] = test system: patient with pulmonary hypertension; experiment: Example 2 case report: patient with pulmonary hypertension treated with phentermine and topiramate; format: in vivo, human; conditions: topiramate 200 mg daily with phentermine 15 mg daily
Description: The second patient was a person with obesity, hypothyroidism, hypertension, valvular heart disease, elevated cholesterol and depression. Their medications were levothyroxine 50 mcg daily, metoprolol 50 mg daily, venlafaxine 37.5 mg daily, progesterone 100 mg daily, esterified estrogens 1.25 mg daily, and methyltestosterone 2.5 mg daily. They were 63″ tall, weight 178 lbs, BMI 32, initial BP 120/78. They had trace edema of both ankles and a systolic murmur of I/VI along the left sternal border. […] A comment on the report stated that this was a slight increase in pulmonary pressure compared with an echocardiogram taken seven months earlier.
They were treated with phentermine 15 mg daily and topiramate 200 mg daily along with a low fat, low carbohydrate diet and exercise. Metoprolol was discontinued after four months due to low blood pressure. Eight months after treatment started, their weight was 165 lbs, BP was 122/76, and they had no edema. […] No MR was seen.

[5] = test system: patient with elevated pulmonary artery pressure (pulmonary hypertension); experiment: Example 1 case report: patient with mildly elevated pulmonary artery pressure treated with bupropion and topiramate; format: in vivo, human
Description: They were 66″ tall, weight 282 lbs, BMI 46, initial BP 118/80. They had 2+ edema of both ankles, clear lungs, and a systolic murmur along the left sternal border, grade II/VI.
They were started on atorvastatin 10 mg daily as well as bupropion 150 mg daily and topiramate 200 mg daily along with a low fat, low carbohydrate diet and exercise. […] They lost weight continuously on the program and 4 months later had lost 20 lbs. […] After six months, the patient temporarily discontinued the medications. Within a few days, even though their weight was the same, their chest pressure and shortness of breath on exertion returned. On resumption of the treatment, the symptoms resolved within a few days.

[6] = test system: patient with probable mild pulmonary hypertension; experiment: Example 3 case report: patient with probable mild pulmonary hypertension treated with phentermine and topiramate; format: in vivo, human
Description: The third patient was a person with obesity, hypertension, elevated cholesterol, heart murmur and dyspnea on exertion. Their medications were atorvastatin 10 mg daily, captopril 12.5 mg daily, trazodone 50 mg daily, spironolactone 50 mg daily, and bupropion 150 mg daily. They were 64″ tall, weight 319 lbs, BMI 55, initial BP 148/76.
They were treated with phentermine 15 mg daily and topiramate 200 mg daily along with a low fat, low carbohydrate diet and exercise. They were instructed to stop both the spironolactone and captopril since this weight loss treatment results in marked lowering of blood pressure in most patients. […] Blood pressure one week later was 140/86 and weight 317 lbs.

[7] = test system: patient with known pulmonary hypertension; experiment: Example 4 case report: patient with known pulmonary hypertension and sleep apnea treated with bupropion, topiramate and phentermine; format: in vivo, human; conditions: topiramate 100 mg daily with bupropion 300 mg
Description: The fourth patient was a person with obesity, sleep apnea on CPAP, known pulmonary hypertension with PA pressure estimated at 76 mm Hg by echocardiogram, valvular heart disease (mild-moderate tricuspid and mitral regurgitation), depression and hypertension. They smoked just under half pack of cigarettes per day and was a CO2 retainer by ABG's with a PCO2 of 54 mm Hg on room air. They were short of breath with minimal exertion. Their baseline medications were furosemide 80 mg daily, potassium chloride 20 mEq daily, lisinopril 10 mg daily, carvedilol 25 mg BID, escitalopram 10 mg daily, alprazolam 0.5 mg TID, and nightly oxygen. They were 68″ tall, weight 284 lbs, BMI 43½, initial BP 122/76. They had 1+ edema of both lower legs and was short of breath on exertion.
They were treated with aspirin 81 mg coated daily, bupropion 300 mg daily, topiramate 100 mg daily, phentermine 5 mg daily, along with a low fat, low carbohydrate diet and light exercise. By the first 4 weeks of follow-up, they had lost 17 lbs and was breathing much better. […] They were still smoking cigarettes occasionally. They had lost 38 lbs. Their blood pressure was 110/70 on only lisinopril 10 mg daily. Furosemide and carvedilol had been gradually discontinued due to improved edema, blood pressure, and breathing. An echocardiogram performed at three months into the program was mostly unchanged from their prior echocardiogram except that the pulmonary artery pressure was reported as normal. This change was consistent with their clinical picture.

[8] = test system: patient with pulmonary hypertension; experiment: Example 5 case report: patient with COPD and pulmonary hypertension treated with phentermine and topiramate; format: in vivo, human; conditions: topiramate 100 mg daily with phentermine 15 mg daily
Description: The fifth patient was a person with obesity, diabetes, hypertension, hypothyroidism, elevated cholesterol, COPD, and pulmonary hypertension. […] They had stopped smoking 1PPD about 10 years previously. Their baseline medications were verapamil 240 mg daily, losartan-HCTZ 50-12.5 daily, levothyroxine 0.125 mg daily, Pulmicort […] 2 puffs twice daily, Foradil powder […] twice daily, metformin 500 mg twice daily, atorvastatin 10 mg daily, fluticasone nasal spray 50 mcg 2 puffs daily and vitamins. They were short of breath with minimal exertion. They were 67″ tall, weight 228 lbs, BMI 36, initial BP 138/70.
They were treated with phentermine 15 mg daily and topiramate 100 mg daily. Three years into treatment, their fasting glucose is 106 off metformin compared with 114 on metformin at baseline, their blood pressure is 115/60 on valsartan 80 mg daily and diltiazem CD 120 mg daily (changed from verapamil because of constipation). Their weight has been stable for six months in the low 180's.

CC(=O)Nc1nnc(S(N)(=O)=O)s1 [acetazolamide]
results relative to Examples 2 through 5 ([1]; 100 mg, 250 mg, and 500 mg acetazolamide substituted for topiramate): Substantially the same results | results relative to Example 1 ([2]; Example 9, 100 mg acetazolamide substituted for the topiramate): Substantially the same results | results relative to Example 1 ([2]; Example 10, 250 mg acetazolamide substituted for the topiramate): Substantially the same results | results relative to Example 1 ([2]; Example 11, 500 mg acetazolamide substituted for the topiramate): Substantially the same results

CCCc1nn(C)c2c(=O)[nH]c(-c3cc(S(=O)(=O)N4CCN(C)CC4)ccc3OCC)nc12 [sildenafil]
potency as phosphodiesterase inhibitor relative to avanafil (Type V phosphodiesterase): approximately twice as potent as avanafil

CC1(C)O[C@@H]2[C@@H](CO[C@@]3(COS(N)(=O)=O)OC(C)(C)O[C@@H]23)O1 [topiramate]
symptomatic improvement ([3]; all patients): symptomatic improvement in all patients | improvement in pulmonary hypertension ([3]; topiramate with phentermine and/or bupropion, diet and weight loss program): surprising improvement | weight ([4]; person, diet and exercise, eight months, baseline 178 lbs): 165 lbs | edema ([4]; eight months, baseline trace edema of both ankles): no edema | BP ([4]; eight months, metoprolol discontinued, baseline 120/78): 122/76 | pulmonary artery pressure (echocardiogram) ([4]; nine months on treatment, baseline 39 mm Hg): 33 mm Hg | mitral regurgitation (MR, echocardiogram) ([4]; nine months on treatment, baseline mild MR): No MR | tricuspid regurgitation (echocardiogram) ([4]; nine months on treatment, baseline moderate TR): mild | chest pressure and shortness of breath on exertion after discontinuing the medications ([5]; medications temporarily discontinued after six months, within a few days, weight the same): returned | exercise tolerance ([5]; person, topiramate 200 mg daily with bupropion 150 mg daily, atorvastatin 10 mg daily, diet and exercise, two weeks after start): markedly improved | symptoms on resumption of the treatment ([5]; resumption of topiramate 200 mg/bupropion 150 mg treatment, within a few days): resolved | chest pressure and shortness of breath on exertion ([5]; topiramate 200 mg daily with bupropion 150 mg daily, atorvastatin 10 mg daily, two weeks after start): gone | weight lost ([5]; topiramate 200 mg daily with bupropion 150 mg daily, atorvastatin, diet and exercise, 4 months, baseline 282 lbs): 20 lbs | pulmonary pressures (echocardiogram) ([5]; topiramate 200 mg daily with bupropion 150 mg daily, 2 weeks after start of treatment, baseline 36 mm Hg): normal | echocardiogram findings of pulmonary hypertension ([6]; person, topiramate 200 mg daily with phentermine 15 mg daily (bupropion 150 mg daily at baseline), three weeks, before significant weight loss, baseline probable mild pulmonary hypertension): no findings of pulmonary hypertension | weight ([6]; topiramate 200 mg daily with phentermine 15 mg daily, four weeks, baseline 319 lbs): 317 lbs | blood pressure ([6]; topiramate 200 mg daily with phentermine 15 mg daily, four weeks, spironolactone and captopril stopped, baseline 148/76): 140/86 | weight lost ([7]; person, phentermine 5 mg, aspirin 81 mg daily, diet, light exercise, first 4 weeks, baseline 284 lbs): 17 lbs | blood pressure ([7]; phentermine 5 mg daily, four months, on only lisinopril 10 mg daily, baseline 122/76): 110/70 | pulmonary artery pressure (echocardiogram) ([7]; phentermine 5 mg daily, three months, baseline estimated 76 mm Hg): normal | breathing ([7]; phentermine 5 mg, aspirin 81 mg daily, first 4 weeks): much better | weight lost ([7]; phentermine 5 mg, aspirin 81 mg daily, four months): 38 lbs | clinical status ([7]; phentermine 5 mg, aspirin 81 mg daily, four months, able to exercise normally without shortness of breath): clinically markedly improved | fasting glucose ([8]; person, three years, off metformin, baseline 114 on metformin): 106 | pulmonary pressures (echocardiogram) ([8]; 30 months into treatment, baseline 45-50 mm Hg): normal | symptoms ([8]; exercising more without shortness of breath): symptomatically much better | weight ([8]; three years, stable for six months, baseline 228 lbs): low 180's | blood pressure ([8]; three years, on valsartan 80 mg and diltiazem CD 120 mg daily, baseline 138/70): 115/60

NS(=O)(=O)Cc1noc2ccccc12 [zonisamide]
results relative to Examples 2 through 5 ([1]; 25 mg, 50 mg, and 100 mg zonisamide substituted for topiramate): Substantially the same results | results relative to Example 1 ([2]; Example 6, 25 mg zonisamide substituted for the topiramate): Substantially the same results | results relative to Example 1 ([2]; Example 7, 50 mg zonisamide substituted for the topiramate): Substantially the same results | results relative to Example 1 ([2]; Example 8, 100 mg zonisamide substituted for the topiramate): Substantially the same results
